From publication PMC8453901, “GLPG1205, a GPR84 Modulator: Safety, Pharmacokinetics, and Pharmacodynamics in Healthy Subjects” (Clinical Pharmacology in Drug Development, 2021)

Experiment: Safety and tolerability, study 1 SAD part
Type: in vivo, human
Protocol: Safety and tolerability were assessed on the basis of adverse events (AEs), which were monitored throughout both studies. Additional safety assessments included vital signs (including supine [and standing in study 2] heart rate, systolic and diastolic blood pressure, and oral body temperature), 12‐lead electrocardiogram (ECG), clinical laboratory tests (hematology, coagulation [study 2 only], serum/plasma chemistry, urinalysis, urine drug screen, serology, and alcohol breath test), and a comprehensive physical examination. In the SAD part of study 1, clinical laboratory tests, physical examination, and vital signs were assessed at the screening visit, at the time of dosing (0 hours after dose), 24 hours after dosing and at follow‐up (7 to 10 days after the final dose). Vital signs were additionally observed 2 hours after dosing, and the 12‐lead ECG was additionally completed at 1, 2, 6, 8, and 12 hours after dosing. In the MAD part of study 1, all additional safety assessments were performed at screening; days 1, 2, 8, 14, and 15; and at follow‐up. In study 2, additional safety assessments were performed at screening (between 21 and 2 days before the first study drug administration); days 1, 2, 5, 10, 14, 15, and 20 (clinical laboratory tests were not performed on day 20); at early discontinuation; and at follow‐up. For study 2, renal function tests (measurement of estimated creatinine clearance rate using the Cockcroft‐Gault equation) were also included in the clinical laboratory tests for safety assessment.
In both studies, the safety analysis was descriptive and focused on changes from baseline and treatment‐emergent findings.

## O=c1nc(OC[C@@H]2COCCO2)cc2n1CCc1cc(C#CC3CC3)ccc1-2 [GLPG1205, 9‐cyclopropylethynyl‐2‐((S)‐1‐[1,4]dioxan‐2‐ylmethoxy)‐6,7‐dihydropyrimido[6,1‐a]isoquinolin‐4‐one]
SAD part, all doses
  subjects with nausea (most frequent TEAE): 4 subjects
Single 10 mg (n = 6)
  Any TEAE: 2 (33.3) number of subjects (%)
  Dizziness (TEAE): 0 number of subjects (%)
  Gastrointestinal disorders (TEAE): 0 number of subjects (%)
  Headache (TEAE): 1 (16.7) number of subjects (%)
  Hot flush (TEAE): 0 number of subjects (%)
  Infections and infestations (TEAE): 1 (16.7) number of subjects (%)
  Musculoskeletal and connective tissue disorders (TEAE): 0 number of subjects (%)
  Nausea (TEAE): 0 number of subjects (%)
  Nervous system disorders (TEAE): 1 (16.7) number of subjects (%)
  Oropharyngeal pain (TEAE): 0 number of subjects (%)
  Respiratory, thoracic, and mediastinal disorders (TEAE): 0 number of subjects (%)
  Somnolence (TEAE): 0 number of subjects (%)
  Torticollis (TEAE): 0 number of subjects (%)
  Urethritis chlamydial (TEAE): 1 (16.7) number of subjects (%)
  Vascular disorders (TEAE): 0 number of subjects (%)
Single 30 mg (n = 6)
  Any TEAE: 1 (16.7) number of subjects (%)
  Dizziness (TEAE): 0 number of subjects (%)
  Gastrointestinal disorders (TEAE): 0 number of subjects (%)
  Headache (TEAE): 0 number of subjects (%)
  Hot flush (TEAE): 0 number of subjects (%)
  Infections and infestations (TEAE): 0 number of subjects (%)
  Musculoskeletal and connective tissue disorders (TEAE): 0 number of subjects (%)
  Nausea (TEAE): 0 number of subjects (%)
  Nervous system disorders (TEAE): 1 (16.7) number of subjects (%)
  Oropharyngeal pain (TEAE): 0 number of subjects (%)
  Respiratory, thoracic, and mediastinal disorders (TEAE): 0 number of subjects (%)
  Somnolence (TEAE): 1 (16.7) number of subjects (%)
  Torticollis (TEAE): 0 number of subjects (%)
  Urethritis chlamydial (TEAE): 0 number of subjects (%)
  Vascular disorders (TEAE): 0 number of subjects (%)
Single 90 mg (n = 6)
  Any TEAE: 0 number of subjects (%)
  Dizziness (TEAE): 0 number of subjects (%)
  Gastrointestinal disorders (TEAE): 0 number of subjects (%)
  Headache (TEAE): 0 number of subjects (%)
  Hot flush (TEAE): 0 number of subjects (%)
  Infections and infestations (TEAE): 0 number of subjects (%)
  Musculoskeletal and connective tissue disorders (TEAE): 0 number of subjects (%)
  Nausea (TEAE): 0 number of subjects (%)
  Nervous system disorders (TEAE): 0 number of subjects (%)
  Oropharyngeal pain (TEAE): 0 number of subjects (%)
  Respiratory, thoracic, and mediastinal disorders (TEAE): 0 number of subjects (%)
  Somnolence (TEAE): 0 number of subjects (%)
  Torticollis (TEAE): 0 number of subjects (%)
  Urethritis chlamydial (TEAE): 0 number of subjects (%)
  Vascular disorders (TEAE): 0 number of subjects (%)
Single 200 mg (n = 6)
  Any TEAE: 1 (16.7) number of subjects (%)
  Dizziness (TEAE): 0 number of subjects (%)
  Gastrointestinal disorders (TEAE): 1 (16.7) number of subjects (%)
  Headache (TEAE): 0 number of subjects (%)
  Hot flush (TEAE): 0 number of subjects (%)
  Infections and infestations (TEAE): 0 number of subjects (%)
  Musculoskeletal and connective tissue disorders (TEAE): 0 number of subjects (%)
  Nausea (TEAE): 1 (16.7) number of subjects (%)
  Nervous system disorders (TEAE): 0 number of subjects (%)
  Oropharyngeal pain (TEAE): 0 number of subjects (%)
  Respiratory, thoracic, and mediastinal disorders (TEAE): 0 number of subjects (%)
  Somnolence (TEAE): 0 number of subjects (%)
  Torticollis (TEAE): 0 number of subjects (%)
  Urethritis chlamydial (TEAE): 0 number of subjects (%)
  Vascular disorders (TEAE): 0 number of subjects (%)
Single 400 mg (n = 6)
  Any TEAE: 3 (50.0) number of subjects (%)
  Dizziness (TEAE): 0 number of subjects (%)
  Gastrointestinal disorders (TEAE): 1 (16.7) number of subjects (%)
  Headache (TEAE): 1 (16.7) number of subjects (%)
  Hot flush (TEAE): 1 (16.7) number of subjects (%)
  Infections and infestations (TEAE): 0 number of subjects (%)
  Musculoskeletal and connective tissue disorders (TEAE): 1 (16.7) number of subjects (%)
  Nausea (TEAE): 1 (16.7) number of subjects (%)
  Nervous system disorders (TEAE): 1 (16.7) number of subjects (%)
  Oropharyngeal pain (TEAE): 0 number of subjects (%)
  Respiratory, thoracic, and mediastinal disorders (TEAE): 0 number of subjects (%)
  Somnolence (TEAE): 0 number of subjects (%)
  Torticollis (TEAE): 1 (16.7) number of subjects (%)
  Urethritis chlamydial (TEAE): 0 number of subjects (%)
  Vascular disorders (TEAE): 1 (16.7) number of subjects (%)
Single 600 mg (n = 6)
  Any TEAE: 0 number of subjects (%)
  Dizziness (TEAE): 0 number of subjects (%)
  Gastrointestinal disorders (TEAE): 0 number of subjects (%)
  Headache (TEAE): 0 number of subjects (%)
  Hot flush (TEAE): 0 number of subjects (%)
  Infections and infestations (TEAE): 0 number of subjects (%)
  Musculoskeletal and connective tissue disorders (TEAE): 0 number of subjects (%)
  Nausea (TEAE): 0 number of subjects (%)
  Nervous system disorders (TEAE): 0 number of subjects (%)
  Oropharyngeal pain (TEAE): 0 number of subjects (%)
  Respiratory, thoracic, and mediastinal disorders (TEAE): 0 number of subjects (%)
  Somnolence (TEAE): 0 number of subjects (%)
  Torticollis (TEAE): 0 number of subjects (%)
  Urethritis chlamydial (TEAE): 0 number of subjects (%)
  Vascular disorders (TEAE): 0 number of subjects (%)
Single 800 mg (n = 6)
  Any TEAE: 5 (83.3) number of subjects (%)
  Dizziness (TEAE): 1 (16.7) number of subjects (%)
  Gastrointestinal disorders (TEAE): 2 (33.3) number of subjects (%)
  Headache (TEAE): 1 (16.7) number of subjects (%)
  Hot flush (TEAE): 0 number of subjects (%)
  Infections and infestations (TEAE): 0 number of subjects (%)
  Musculoskeletal and connective tissue disorders (TEAE): 0 number of subjects (%)
  Nausea (TEAE): 2 (33.3) number of subjects (%)
  Nervous system disorders (TEAE): 3 (50.0) number of subjects (%)
  Oropharyngeal pain (TEAE): 2 (33.3) number of subjects (%)
  Respiratory, thoracic, and mediastinal disorders (TEAE): 2 (33.3) number of subjects (%)
  Somnolence (TEAE): 1 (16.7) number of subjects (%)
  Torticollis (TEAE): 0 number of subjects (%)
  Urethritis chlamydial (TEAE): 0 number of subjects (%)
  Vascular disorders (TEAE): 0 number of subjects (%)
